A word on the Emax: it is the maximal effect, on the per cent scale that the assay sets. Broadly, the EC50 is the concentration that produces a half-maximal response. Read a low EC50 as higher potency in that assay.

16 molecules from US9656962B2, “Ring-contracted morphinans and the use thereof” (Purdue Pharma L.P., priority 2013, dated 2017) can be followed below.

Where only a bound is given, the exact number is not on record here.

This assay deals with μ-opioid receptor (Homo sapiens (Human), UniProt P35372). In words: μ-opioid receptor [35S]GTPγS functional assay, HEK-293 cells (Table 6). It counts as biochemical. Particulars: for EC50: μ GTP. On the procedure: μ-Opioid Receptor Functional Assay Procedures: [^35S]GTPγS functional assays were conducted using freshly thawed μ-receptor membranes prepared in-house from a cell line expressing recombinant μ opioid receptor in a HEK-293, CHO or U-2 OS cell background, or purchased from a commercial source (Perkin Elmer, Shelton, Conn.; or DiscovRx, Fremont, Calif.). Assay reactions were prepared by sequentially adding the following reagents to binding buffer (100 mM NaCl, 10 mM MgCl2, 20 mM HEPES, pH 7.4) on ice (final concentrations indicated): membrane protein (0.026 mg/mL), saponin ([…]), GDP ([…]) and [^35S]GTPγS (0.20 nM; Perkin Elmer, Shelton, Conn.). The prepared membrane solution (190 μl/well) was transferred to 96-shallow well polypropylene plates containing 10 μl of 20× concentrated stock solutions of the agonist [D-Ala^2, N-methyl-Phe^4 Gly-ol^5]-enkephalin (DAMGO) prepared in dimethyl sulfoxide (DMSO). Plates were incubated for 30 min at about 25° C. with shaking Reactions were terminated by rapid filtration onto 96-well Unifilter GF/B filter plates (Perkin Elmer, Shelton, Conn.) using a 96-well tissue harvester (Perkin Elmer, Shelton, Conn.) followed by three filtration washes with 200 μl of ice-cold wash buffer (10 mM NaH2PO4, 10 mM Na2HPO4, pH 7.4). Filter plates were subsequently dried at 50° C. for 2-3 hours. BetaScint scintillation cocktail (Perkin Elmer, Shelton, Conn.) was added (50 μl/well) and plates were counted using a Packard Top-Count for 1 min/well. Data were analyzed using the sigmoidal dose-response curve fitting functions in GraphPad PRISM v. 3.0, or an in-house function for non-linear, sigmoidal dose-response curve-fitting. [^35S]GTPγS functional assays can also be conducted using freshly thawed μ-receptor membranes prepared from a cell line expressing recombinant μ opioid receptor in a CHO-K1 cell background.
μ GTP Emax (%) is the maximal effect elicited by a compound relative to the effect elicited by DAMGO, a standard μ agonist. Generally, the μ GTP Emax (%) value measures the efficacy of a compound to treat or prevent pain or other Conditions.
The following TABLE 6 provides results on the activity response of certain Compounds of the Invention at the μ- and κ-opioid receptors determined as described above using HEK-293 cells.
(In general: GTPγS resists hydrolysis and so accumulates on activated G proteins.)

As to `O=C(NCc1ccc(Cl)cc1F)[C@@H]1C[C@]23CCN(CC4CC4)[C@H](Cc4ccc(O)cc42)[C@]3(O)C1` [Compound 136, (2R,3aS,4R,9bS)-N-(4-chloro-2-fluorobenzyl)-12-(cyclopropylmethyl)-3a,8-dihydroxy-1,2,3,3a,4,5-hexahydro-4,9b-(epiminoethano)cyclopenta-[a]naphthalene-2-carboxamide], where the note is “relative to DAMGO”, the Emax was -0.33 ± 0.67%. Under “bound given in μM”, this molecule registered an EC50 of over 20 µM.

`Cc1ccc(CNC(=O)[C@H]2C[C@]34CCN(CC5CC5)[C@H](Cc5ccc(O)cc53)[C@]4(O)C2)cc1Cl` [Compound 137, (2S,3aS,4R,9bS)-N-(3-chloro-4-methylbenzyl)-12-(cyclopropylmethyl)-3a,8-dihydroxy-1,2,3,3a,4,5-hexahydro-4,9b-(epiminoethano)cyclopenta-[a]naphthalene-2-carboxamide] had an EC50 of 0.00045 ± 6.1e-05 µM. The Emax (relative to DAMGO) was 55.5 ± 0.31%.

With `Cc1c(Cl)cccc1CNC(=O)[C@H]1C[C@]23CCN(CC4CC4)[C@H](Cc4ccc(O)cc42)[C@]3(O)C1` [Compound 138, (2S,3aS,4R,9bS)-N-(3-chloro-2-methylbenzyl)-12-(cyclopropylmethyl)-3a,8-dihydroxy-1,2,3,3a,4,5-hexahydro-4,9b-(epiminoethano)cyclopenta-[a]naphthalene-2-carboxamide], the EC50 was determined as 0.00071 ± 6.8e-05 µM. In addition, the Emax (relative to DAMGO) came out at 52.4 ± 1.72%.

As to `O=C(NCc1cc(O)cc(O)c1)[C@@H]1C[C@]23CCN(CC4CC4)[C@H](Cc4ccc(O)cc42)[C@]3(O)C1` [Compound 139, (2R,3aS,4R,9bS)-12-(cyclopropylmethyl)-N-(3,5-dihydroxybenzyl)-3a,8-dihydroxy-1,2,3,3a,4,5-hexahydro-4,9b-(epimino-ethano)cyclopenta[a]naphthalene-2-carboxamide], the Emax (relative to DAMGO) was -1%. The EC50 (bound given in μM) was over 20 µM.

On to `O=C(NCc1ccc(O)c(O)c1)[C@@H]1C[C@]23CCN(CC4CC4)[C@H](Cc4ccc(O)cc42)[C@]3(O)C1` [Compound 140, (2R,3aS,4R,9bS)-12-(cyclopropylmethyl)-N-(3,4-dihydroxybenzyl)-3a,8-dihydroxy-1,2,3,3a,4,5-hexahydro-4,9b-(epimino-ethano)cyclopenta[a]naphthalene-2-carboxamide], for which, for the setting “relative to DAMGO”, the Emax came to 0.33 ± 0.67%. In addition, the EC50 (bound given in μM) was over 20 µM.

As to `O=C(NCc1cccc(O)c1O)[C@H]1C[C@]23CCN(CC4CC4)[C@H](Cc4ccc(O)cc42)[C@]3(O)C1` [Compound 141, (2S,3aS,4R,9bS)-12-(cyclopropylmethyl)-N-(2,3-dihydroxybenzyl)-3a,8-dihydroxy-1,2,3,3a,4,5-hexabydro-4,9b-(epimino-ethano)cyclopenta[a]naphthalene-2-carboxamide], it took 0.00117 ± 0.0001 µM to reach a half-maximal effect (EC50). For the setting “relative to DAMGO”, the Emax turned out to be 47.4 ± 0.83%.

Regarding `O=C(NCc1cccc(O)c1)[C@@H]1C[C@]23CCN(CC4CC4)[C@H](Cc4ccc(O)cc42)[C@]3(O)C1` [Compound 142, (2R,3aS,4R,9bS)-12-(cyclopropylmethyl)-3a,8-dihydroxy-N-(3-hydroxybenzyl)-1,2,3,3a,4,5-hexahydro-4,9b-(epimino-ethano)cyclopenta[a]naphthalene-2-carboxamide], the Emax (relative to DAMGO) is 0%. The EC50 (bound given in μM) was over 20 µM.

The molecule `O=C(NCc1cc(F)cc(F)c1)[C@H]1C[C@]23CCN(CC4CC4)[C@H](Cc4ccc(O)cc42)[C@]3(O)C1` [Compound 143, (2S,3aS,4R,9bS)-12-(cyclopropylmethyl)-N-(3,5-difluorobenzyl)-3a,8-dihydroxy-1,2,3,3a,4,5-hexahydro-4,9b-(epimino-ethano)cyclopenta[a]naphthalene-2-carboxamide] came in with an EC50 of 0.00209 ± 0.00045 µM. Besides, under “relative to DAMGO”, the Emax is 39.9 ± 1.01%.

`O=C(NCc1ccc(F)c(F)c1)[C@@H]1C[C@]23CCN(CC4CC4)[C@H](Cc4ccc(O)cc42)[C@]3(O)C1` [Compound 145, (2R,3aS,4R,9bS)-12-(cyclopropylmethyl)-N-(3,4-difluorobenzyl)-3a,8-dihydroxy-1,2,3,3a,4,5-hexahydro-4,9b-(epimino-ethano)cyclopenta[a]naphthalene-2-carboxamide]: the Emax (relative to DAMGO) is -1%. This molecule also had an EC50 (bound given in μM) of over 20 µM.

In the case of `O=C(NCc1ccc(F)cc1F)[C@H]1C[C@]23CCN(CC4CC4)[C@H](Cc4ccc(O)cc42)[C@]3(O)C1` [Compound 146, (2S,3aS,4R,9bS)-12-(cyclopropylmethyl)-N-(2,4-difluorobenzyl)-3a,8-dihydroxy-1,2,3,3a,4,5-hexahydro-4,9b-(epimino-ethano)cyclopenta[a]naphthalene-2-carboxamide], the response was half-maximal at 0.00222 ± 0.00041 µM (EC50). Further, the Emax (relative to DAMGO) was 28.3 ± 1.13%.

`O=C(NCc1ccc(F)cc1F)[C@@H]1C[C@]23CCN(CC4CC4)[C@H](Cc4ccc(O)cc42)[C@]3(O)C1` [Compound 147, (2R,3aS,4R,9bS)-12-(cyclopropylmethyl)-N-(2,4-difluorobenzyl)-3a,8-dihydroxy-1,2,3,3a,4,5-hexahydro-4,9b-(epimino-ethano)cyclopenta[a]naphthalene-2-carboxamide]: where the note is “relative to DAMGO”, the Emax was -1%. For the same molecule, for the setting “bound given in μM”, the EC50 is over 20 µM.

With `O=C(NCc1ccccc1O)[C@@H]1C[C@]23CCN(CC4CC4)[C@H](Cc4ccc(O)cc42)[C@]3(O)C1` [Compound 149, (2R,3aS,4R,9bS)-12-(cyclopropylmethyl)-3a,8-dihydroxy-N-(2-hydroxybenzyl)-1,2,3,3a,4,5-hexahydro-4,9b-(epimino-ethano)cyclopenta[a]naphthalene-2-carboxamide], the Emax (relative to DAMGO) amounted to 0%. The EC50 (bound given in μM) was over 20 µM.

Consider `O=C(NCc1cc(Cl)cc(Cl)c1)[C@@H]1C[C@]23CCN(CC4CC4)[C@H](Cc4ccc(O)cc42)[C@]3(O)C1` [Compound 150, (2R,3aS,4R,9bS)-12-(cyclopropylmethyl)-N-(3,5-dichlorobenzyl)-3a,8-dihydroxy-1,2,3,3a,4,5-hexahydro-4,9b-(epimino-ethano)cyclopenta[a]naphthalene-2-carboxamide], for which the Emax (relative to DAMGO) is -1%. Also, the EC50 (bound given in μM) is over 20 µM.

Turning to `O=C(NCc1cc(Cl)ccc1Cl)[C@@H]1C[C@]23CCN(CC4CC4)[C@H](Cc4ccc(O)cc42)[C@]3(O)C1` [Compound 151, (2R,3aS,4R,9bS)-12-(cyclopropylmethyl)-N-(2,5-dichlorobenzyl)-3a,8-dihydroxy-1,2,3,3a,4,5-hexahydro-4,9b-(epimino-ethano)cyclopenta[a]naphthalene-2-carboxamide], the Emax (relative to DAMGO) is -1%. This molecule yielded an EC50 (bound given in μM) of over 20 µM.

Turning to `O=C(NCc1cccc(Cl)c1)[C@@H]1C[C@]23CCN(CC4CC4)[C@H](Cc4ccc(O)cc42)[C@]3(O)C1` [Compound 152, (2R,3aS,4R,9bS)-N-(3-chlorobenzyl)-12-(cyclopropylmethyl)-3a,8-dihydroxy-1,2,3,3a,4,5-hexahydro-4,9b-(epimino-ethano)cyclopenta[a]naphthalene-2-carboxamide], the Emax (relative to DAMGO) was determined as 4.45 ± 3.18%. The molecule also displayed an EC50 (bound given in μM) of over 20 µM.

On to “(2R,3aS,4R,9bS)-N-(2-chlorobenzyl)-12- (cyclopropylmethyl)-3a,8-dihydroxy- 1,2,3,3a,4,5-hexahydro-4,9b-(epimino- ethano)cyclopenta[a]naphthalene-2- carboxamide [Compound 148]”, for which the “μ Emax (%)” value (relative to DAMGO) stood at 1.00%. The EC50 (bound given in μM) is over 20 µM.
